Laboratory results reported in patent publication US20060183773A1, “Uses of methylphenidate derivatives” (priority 2005, published 2006).

What was measured:
Format in all cases: cell-based, human
HUVECs = test: Cell death of HUVECs in the TNFα/IL-8 experiment; conditions: highest dose (30 μg/ml)
Procedure: Passage 4 HUVECs, human source lot number 8710 (obtained from ATCC), were put into the wells of a 24-well tissue culture plate at 5,000 cells/well in EGM-2 medium (obtained from Cambrex) and cultured for 72 hours at 37° C. and 5% CO2. […] After incubation for 1 hour at 37° C. and 5% CO2, TNFα (obtained from Pierce) was added to give a final concentration of 10 ng/ml, and the cells were incubated for an additional 18 hours at 37° C. and 5% CO2. After this incubation, the supernatants were collected, and the amount of IL-8 in the supernatants determined by ELISA as described in Example 4.

MEK1 = test: Custom AntibodyArray, TRiPS cells: MEK1; conditions: 15 μg/ml, 30 minutes
Procedure: (§1) Day 18 TRiPS cells, 1×10^6, were incubated for 30 minutes at 37° C., either with nothing added (“Nil”), with 1 μl CD3/CD28 Dynabeads (Dynal, Oslo, Norway) (“CD3/CD28 beads”) per 100,000 cells, or with CD3/CD28 beads and 15 μg/ml of the compound of formula II (Cpd II). After the incubation, the cells were lysed in Cell-Lytic Mammalian Cell Extraction Reagent (Sigma). After centrifugation to pellet cellular debris, the supernatants (cell extracts) were obtained.
(§2) The cell extracts (supernatants) were then analyzed using a Custom AntibodyArray™ manufactured by Hypromatrix Inc., Worcester, Mass., following the manufacturer's instructions. The Custom AntibodyArray™ is a nylon membrane blotted with antibodies to the proteins listed below. Briefly, the cell extracts were incubated with duplicate Custom AntibodyArray™'s for 2 hours at room temperature with slow shaking, followed by three washes with Tris buffer (150 mM NaCl, 25 mM Tris, 0.05% Tween-20, pH 7.5). HRP-labeled antibodies specific for phosphorylated-tyrosine, phosphorylated-serine and phosphorylated-threonine in Tris buffer were added, and the arrays incubated for 2 hours. After three more washes with Tris buffer, a peroxidase-reactive luminescent substrate was added. The arrays were visualized by exposure to X-ray film. Densitometry of the X-ray films was measured by scanning and computer analysis.

STAT6 = test: Custom AntibodyArray, TRiPS cells: STAT6; conditions: 15 μg/ml, 30 minutes
Procedure: as §1, §2

NFκB = test: Activated NFκB in TNFα- or VEGF-treated HIAECs, TransAM assay
Procedure: Then, the amount of NFκB was determined using a TransAM™ NFκB p65/NFκB p50 Transcription Factor Assay Kit and a Nuclear Extract Kit from Active Motif North America, Carlsbad, Calif., according to the manufacturer's instructions. Briefly, a nuclear extract of the cells was prepared using the Nuclear Extract Kit. Then, the nuclear extract was added to the wells of the 96-well plate of the TransAM™ kit. Oligonucleotide containing an NFκB consensus binding site was immobilized in the wells, and the activated NFκB contained in the nuclear extract was bound to the oligonucleotide. Then, an antibody directed against the NFκB p65 or p50 subunit was added, and the NFκB complex bound to the oligonucleotide was detected. A secondary antibody conjugated to horseradish peroxidase (HRP) was next added to provide a colorimetric readout that was quantified by spectrophotometry (measurement at 450 nm).
Passage 8 (human iliac artery endothelial cells (HIAECs) (obtained from ATCC; catalog no. CC-2545) were grown to confluence in 25 cm^2 flasks in EGM-2 medium. Eighteen hours prior to the experiment, the medium was replaced with EGM-2 medium containing 0.1% FCS plus heparin, GA1000 (gentamycin) and bovine pituitary extract (all from Cambrex) to place the cells in a resting state. To perform the experiment the medium was aspirated from the flasks, and the following additives were added to the flasks in fresh medium (total volume of 5 ml/flask): 15 μg/ml of the compound of formula II (Cpd II) or 10 μM LY 294002. The flasks were incubated 2 hours at 37° C., 5% CO2 After this incubation, VEGF or TNFα was added to give a final concentration 10 ng/ml, and the flasks were incubated for an additional 30 minutes. Then, the amount of NFκB was determined using a TransAM™ NFκB p65/NFκB p50 Transcription Factor Assay Kit and a Nuclear Extract Kit from Active Motif North America, Carlsbad, Calif., as described in Example 9.

IL-8 = IL-8 release by PHA-stimulated PBL, ELISA; conditions: PBL donor GR-192; 2 μg/ml PHA, 96 h; Cpd II 15 μg/ml, Dex 10 μM; FIG. 8
Procedure: Whole blood was drawn from GR-192, a normal human volunteer, and processed as described in Example 1 to give heat-inactivated serum and PBL. […] After this incubation, PHA was added to give a final concentration of 2 μg/ml, and the cells were incubated for an additional 96 hours at 37° C., 5% CO2. All cultures were performed in triplicate. Cells were then removed by centrifugation at 1000 rpm for 10 minutes, and the culture medium collected.
Release of IL-8 into the culture medium was measured by ELISA. To perform the ELISA, matched pairs of antibodies against human IL-8 were purchased from Pierce Biotechnology and Biosource, respectively. ELISA strip well plates were coated with 2 μg/ml of antibody to IL-8 (in phosphate-buffered saline (PBS)) overnight at room temperature. The plates were then blocked using a 4% BSA solution in PBS for one hour, followed by the addition of 50 μl of experimental culture medium per well in duplicate. The plates were incubated at room temperature for one hour and then washed using 50 mM Tris pH 8.0 with 0.1% Tween 20. Then, solutions of 100 ng/ml biotinylated second antibody to IL-8 were made in blocking buffer, and 100 μl were added per well. The plates were incubated for 1 hour and washed again. […] OD was determined using microplate reader with a 450 nm filter.

T cells = test: CD69+TCR staining of PBL, flow cytometry (T-cell activation); conditions: for CD69+TCR staining of PHA-stimulated cells: PHA alone 84%
Procedure: After this incubation, PHA was added to give a final concentration of 5 μg/ml, and the cells were incubated for an additional 72 hours at 37° C., 5% CO2. All cultures were performed in triplicate. Cells were then removed by centrifugation at 1000 rpm for 10 minutes.
The cells were further analyzed by flow cytometry. Annexin was used to determine populations of dead or dying cells. Anti-CD69 antibody was used to establish the level of cellular activation. Antibody to T-cell receptor αβ (TCR) was also used. Recombinant Annexin 5 (PE and FITC conjugates) and the antibodies were all purchase from Caltag (Burlingham, Calif.) and used following the manufacturer's recommendations.

## COC(=O)C(c1ccc(-c2ccccc2)cc1)C1CCCCN1 (stereo not drawn) [Cpd II]
HUVECs
  cell death: some cell death
MEK1
  Effect of Cpd II on the protein in CD3/CD28 stimulated TRiPS cells: Decreased level to below basal levels (Nil control)
STAT6
  Effect of Cpd II on the protein in CD3/CD28 stimulated TRiPS cells: Slightly decreased the level
NFκB; TNFα 10 ng/ml + 15 μg/ml, control 0.174, TNFα only 0.881
  Mean OD 450 nm (NFκB): 0.302 ± 0.003
NFκB; VEGF 10 ng/ml + 15 μg/ml, control 0.174, VEGF only 0.220
  Mean OD 450 nm (NFκB): 0.066 + 0.005
IL-8
  IL-8 release induced by PHA: significantly inhibited IL-8 release induced by PHA
T cells; PHA 5 μg/ml plus 15 μg/ml
  CD69+TCR staining of PHA-stimulated cells: 64%
T cells; PHA 5 μg/ml plus 50 μg/ml
  CD69+TCR staining of PHA-stimulated cells: 54%
T cells; compound alone, no PHA
  CD69+TCR staining (activated T cells): not detected
